Experimental data reported in ChEMBL document CHEMBL1136802, “Receptor-guided alignment-based comparative 3D-QSAR studies of benzylidene malonitrile tyrphostins as EGFR and HER-2 kinase inhibitors” (J Med Chem, 2003).

Columns and labels:
[1] = biological target: T1, Receptor tyrosine-protein kinase erbB-2 (Homo sapiens, UniProt P04626); test: Inhibitory activity tested against protein kinase HER-2
[2] = biological target: T2, Epidermal growth factor receptor (Homo sapiens, UniProt P00533); test: Inhibitory activity against epidermal growth factor receptor (EGFR)
T2 sequence (P00533 whole entry): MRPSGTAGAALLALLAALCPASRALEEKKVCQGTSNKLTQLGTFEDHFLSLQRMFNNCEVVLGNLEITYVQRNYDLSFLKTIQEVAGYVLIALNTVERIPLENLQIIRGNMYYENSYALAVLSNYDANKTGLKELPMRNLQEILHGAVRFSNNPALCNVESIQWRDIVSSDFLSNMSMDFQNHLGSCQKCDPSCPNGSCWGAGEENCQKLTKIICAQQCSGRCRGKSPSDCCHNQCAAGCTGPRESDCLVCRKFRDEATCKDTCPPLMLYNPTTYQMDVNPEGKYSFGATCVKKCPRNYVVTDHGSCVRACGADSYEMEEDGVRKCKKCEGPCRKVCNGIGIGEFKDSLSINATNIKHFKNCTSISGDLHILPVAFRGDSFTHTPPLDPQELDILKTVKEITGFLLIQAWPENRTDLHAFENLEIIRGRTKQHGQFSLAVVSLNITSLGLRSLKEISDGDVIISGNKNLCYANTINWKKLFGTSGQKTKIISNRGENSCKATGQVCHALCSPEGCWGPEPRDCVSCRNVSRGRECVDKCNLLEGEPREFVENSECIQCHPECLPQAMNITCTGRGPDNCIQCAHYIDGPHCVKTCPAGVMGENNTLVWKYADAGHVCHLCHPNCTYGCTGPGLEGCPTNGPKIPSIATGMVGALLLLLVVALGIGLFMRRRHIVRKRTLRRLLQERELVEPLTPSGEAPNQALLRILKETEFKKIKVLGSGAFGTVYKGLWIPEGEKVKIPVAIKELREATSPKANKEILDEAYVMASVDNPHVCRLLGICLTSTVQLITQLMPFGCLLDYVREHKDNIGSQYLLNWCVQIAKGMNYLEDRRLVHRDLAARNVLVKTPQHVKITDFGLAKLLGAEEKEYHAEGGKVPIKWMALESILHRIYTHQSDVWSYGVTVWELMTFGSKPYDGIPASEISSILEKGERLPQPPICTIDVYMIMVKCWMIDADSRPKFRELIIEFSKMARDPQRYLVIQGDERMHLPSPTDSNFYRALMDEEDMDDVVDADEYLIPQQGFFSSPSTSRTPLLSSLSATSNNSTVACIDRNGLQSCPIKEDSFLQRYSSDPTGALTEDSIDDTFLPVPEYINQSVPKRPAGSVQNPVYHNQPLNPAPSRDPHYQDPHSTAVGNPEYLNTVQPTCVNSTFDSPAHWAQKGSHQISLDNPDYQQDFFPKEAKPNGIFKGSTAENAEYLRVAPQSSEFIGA

[3] = biological target: T1, Receptor tyrosine-protein kinase erbB-2; test: Inhibition of HER-2 ErbB2 receptor
[4] = biological target: T2, Epidermal growth factor receptor; test: Inhibition of epidermal growth factor receptor (EGFR)

T1 sequence (P04626 whole entry): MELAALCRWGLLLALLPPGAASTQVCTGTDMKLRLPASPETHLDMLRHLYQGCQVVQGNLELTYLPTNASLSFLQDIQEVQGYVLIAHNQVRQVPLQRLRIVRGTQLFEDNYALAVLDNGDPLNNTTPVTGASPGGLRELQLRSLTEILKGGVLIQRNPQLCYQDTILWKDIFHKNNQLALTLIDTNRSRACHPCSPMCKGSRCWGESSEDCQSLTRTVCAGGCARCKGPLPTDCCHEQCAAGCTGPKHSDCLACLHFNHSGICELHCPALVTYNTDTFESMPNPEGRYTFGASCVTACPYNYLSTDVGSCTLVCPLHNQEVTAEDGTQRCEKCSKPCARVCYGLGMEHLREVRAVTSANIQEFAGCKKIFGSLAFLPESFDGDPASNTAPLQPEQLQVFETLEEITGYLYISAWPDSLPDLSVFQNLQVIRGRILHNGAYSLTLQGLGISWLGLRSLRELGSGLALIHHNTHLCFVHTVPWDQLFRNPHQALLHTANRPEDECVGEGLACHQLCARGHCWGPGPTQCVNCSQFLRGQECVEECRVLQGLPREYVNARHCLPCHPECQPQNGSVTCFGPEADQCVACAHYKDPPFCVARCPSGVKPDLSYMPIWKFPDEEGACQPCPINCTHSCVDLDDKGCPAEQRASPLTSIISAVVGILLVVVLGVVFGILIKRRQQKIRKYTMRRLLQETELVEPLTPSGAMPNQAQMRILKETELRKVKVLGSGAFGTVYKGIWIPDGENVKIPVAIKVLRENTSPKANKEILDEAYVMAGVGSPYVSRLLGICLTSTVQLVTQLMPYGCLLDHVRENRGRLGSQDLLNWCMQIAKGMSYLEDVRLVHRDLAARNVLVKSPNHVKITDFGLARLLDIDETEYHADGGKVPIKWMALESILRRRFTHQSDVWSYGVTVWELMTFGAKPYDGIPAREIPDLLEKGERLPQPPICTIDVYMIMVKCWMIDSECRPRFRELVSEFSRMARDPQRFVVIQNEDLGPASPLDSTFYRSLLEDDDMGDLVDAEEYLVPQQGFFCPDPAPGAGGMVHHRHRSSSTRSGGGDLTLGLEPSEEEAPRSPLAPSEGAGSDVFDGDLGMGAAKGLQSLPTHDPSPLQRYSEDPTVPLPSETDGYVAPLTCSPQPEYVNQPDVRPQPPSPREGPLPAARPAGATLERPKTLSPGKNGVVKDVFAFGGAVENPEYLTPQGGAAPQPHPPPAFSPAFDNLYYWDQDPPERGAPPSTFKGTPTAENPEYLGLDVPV

SMILES	IC50 [1] [µM]	IC50 [2] [µM]	also measured
COc1cc(/C=C(\C#N)C(N)=O)cc(CSc2ccccn2)c1O	0.708	–	–
N#C/C(=C\c1ccc(O)c(O)c1)C(=O)NCCCCc1ccccc1	501	–	–
COc1cc(/C=C(\C#N)C(N)=O)cc(CSc2nc3ccccc3[nH]2)c1O	6.17	–	–
COc1cc(C=C(C#N)C#N)cc(CSc2ccccc2C(=O)O)c1O	10	–	–
COc1cc(C=C(C#N)C#N)cc(SCC(=O)O)c1O	4.57	53.7	–
COc1ccc(NC(=O)/C(C#N)=C/c2ccc(O)c(O)c2)c(OC)c1	166	–	–
COc1cc(/C=C(\C#N)C(N)=O)cc(CSc2nc3cc(Cl)ccc3s2)c1O	15.1	83.2	–
COc1cc(C=C(C#N)C#N)cc(CS(=O)(=O)c2ccc(C)cc2)c1O	17.4	–	–
Cc1cc(C)c(C(=O)/C(C#N)=C/c2ccc(O)c(O)c2)c(C)c1	–	19.1	–
COc1cc(/C=C(\C#N)C(N)=O)cc(CSCc2ccccc2)c1O	10	–	–
N#C/C(=C\c1ccc(O)c(O)c1)C(=O)NCCc1ccccc1	–	0.617	–
COc1cc(C=C(C#N)C#N)cc(C)c1O	112	–	–
COc1cc(/C=C(\C#N)C(N)=O)cc(SCCCC(=O)O)c1O	–	47.9	–
Cc1cc(C=C(C#N)C#N)cc(O)c1O	58.9	–	–
N#C/C(=C\c1ccc(O)c(O)c1)C(=O)c1ccc(F)cc1	12.9	–	–
Cc1cc(C)c(NC(=O)/C(C#N)=C/c2ccc(O)c(O)c2)c(C)c1	20.9	19.1	–
N#C/C(=C\c1ccc(O)c(O)c1)C(=O)c1ccc(O)c(O)c1	17	–	–
COc1cc(/C=C(\C#N)C(N)=O)cc(SCCC(=O)O)c1O	–	–	IC50 [3]: 91.2 µM
CCOC(=O)C(Cc1ccccc1)NC(=O)/C(C#N)=C/c1ccc(O)c(O)c1 (centres undefined)	331	–	–
CCOc1ccc2sc(SCc3cc(/C=C(\C#N)C(N)=O)cc(OC)c3O)nc2c1	–	–	IC50 [4]: 166 µM

Further lines, with some results ahead:

IC50 [1] [µM]	IC50 [2] [µM]	SMILES	also measured
1.02	–	N#C/C(=C\c1cc(O)c(O)c(CSCc2ccccc2)c1)C(N)=O	–
1	501	CC(C)(C)Oc1cc(/C=C(\C#N)C(=N)S)cc(C(C)(C)C)c1O	–
2.51	–	COc1cc(C=C(C#N)C#N)cc(CSc2ccccc2)c1O	–
0.447	–	COc1cc(/C=C(\C#N)C(N)=O)cc(CSc2ccccc2C(=O)O)c1O	–
4.57	1.7	COc1cc(/C=C(\C#N)C(N)=O)cc(CSc2cccc3ccccc23)c1O	–
0.251	–	COc1cc(/C=C(\C#N)C(N)=O)cc(CSCc2ccccc2Cl)c1O	–
0.129	–	COc1cc(/C=C(\C#N)C(N)=O)cc(CSc2ccccc2)c1O	–
1.66	–	COc1cc(/C=C(\C#N)C(N)=O)cc(CSc2ccc(C)cc2)c1O	–
2.88	3.02	N#C/C(=C\c1ccc(O)c(O)c1)C(=O)NCc1ccc(O)cc1	–
2	15.8	COc1cc(/C=C(/C#N)C(N)=O)cc(CSCc2ccc(Cl)cc2)c1O	–
3.31	–	COc1cc(/C=C(\C#N)C(N)=O)cc(CSc2ccccc2NC(C)=O)c1O	–
1.51	–	COc1cc(/C=C(\C#N)C(N)=O)cc(CSc2nc3ccccc3o2)c1O	–
